Data taken from patent publication US6984655B1, “Photodynamic therapy for selectively closing neovasa in eyeground tissue” (Meiji Seika Kaisha, Ltd., priority 2000, dated 2006).
Blank lines part the entries; values can stand above or below the compound they belong to.

Legend:
CD-1 (male) mice = assay: acute toxicity test (LD50); type: in vivo
[1] = tested on: vascular walls of retinal normal vascular vessels and choroidal neovascular vessels (CNV); assay: fluorescence fundus angiography of NPe6 red fluorescence (488 nm excitation) in monkeys having experimental CNV; type: in vivo, monkeys of the genus Macaca; settings: for time point at which red fluorescence was substantially entirely eliminated from retinal normal vascular vessels while CNV lesions continued to emit: Test Example 2
Text: The detailed procedures of the above experiments are as follows. Thus, a beam of a laser light of 647 nm wavelenght as emitted from a krypton laser generator [Coherent Medical Laser generator, manufactured by Novua Omni Co.; having an output of 500 to 900 mW] was irradiated as a laser-irradiating spot of a diameter of 50 μm onto the ocular fundi of 8 mature monkeys of the genus Macaca (of body weights of 3.5 kg to 6.0 kg) for 0.1 seconds, according to a modification of the Ryan's method [Arch. Ophthalmol., vol 100; pp. 1804–1809 (1982)]. It is said that the resulting damage in the Bruch's membrane, which were incurred by the irradiation of the 647 nm laser light, is very effective for the incidence of ocular neovascular vessels. Thereby, there were induced the experimental choroidal neovascular vessels (abbreviated as CNV). The induced CNV are the neovascular vessels as branched from the choroidal normal vascular vessels in the ocular fundus. Such CNV have infiltrated in the subretinal space, namely the space between the sensory retina and choroids, to involve the occurrence of exudation, bleeding and retinal detachment. The formation of the neovasculature lesions comprising the CNV was confirmed by a process which comprised intravenously injecting fluorescein or indocyanine green to the so treated monkeys and subsequently carrying out the diagnosis method according to a fluorescence fundus angiography of the ocular fundus.
In the course of said irradiation of 488 nm laser light beam for 10 minutes, the images of the red fluorescence as emitted in the ocular fundus were recorded by photography on a video tape by means of a high-sensitivity television fundus camera apparatus. Thereafter, at intervals of 10 minutes, a beam of 488 nm laser light was repeatedly irradiated to the ocular fundus each for about one minute. At each of the irradiations of the 488 nm laser light beam, the images of the red fluorescence emitted from the vascular vessels of the ocular fundus were recorded on the video tape. […] The images of the fluorescence emitted from the ocular fundus vascular vessels were then reproduced from the recording video tape for the purpose of observation.
During this 10 minutes-irradiation of the 488 nm-laser light to the ocular fundi, the images of the red fluorescence emitted from the ocular fundi were recorded by photography on a video tape by means of a high-sensitivity television fundus camera.
During this irradiation of the 488 nm-laser light, the images of the red fluorescences emitted from the retinal normal vascular vessels and from the choroidal neovascular vessels were observed by an apparatus for the fluorescence ocular fundus angiography of the ocular fundus (namely, an infrared light fundus camera).

[2] = tested on: ocular fundus tissue with choroidal neovascular vessels (CNV); assay: fluorescence microscopy of cross-section samples of enucleated eyeballs; type: in vivo, monkeys of the genus Macaca; settings: 20 mg/kg iv, eyeballs enucleated 65 to 70 minutes after injection, excitation 380 to 420 nm
Experimental: These cut pieces of the eyeballs were frozen in a bath of liquid nitrogen. Cross-section samples each having a thickness of 5 μm were prepared from the ocular fundus tissue region of the frozen pieces of the eyeballs.

[3] = tested on: experimental choroidal neovascular vessels (CNV); settings: optical microscope, pathological examination
Text: In the experiments of this Test Example 2, there were used 31 neovasculature lesions chosen from among the neovasculature lesions which comprised the experimental choroidal neovascular vessels (CNV) as produced in the ocular fundi of the monkeys of the genus Macaca by the modified Ryan's method set out in the Test Example 1 above.
The 664 nm-laser light was irradiated for 300 seconds at a fluence of 204 J/cm^2.
The laser light was irradiated for 60 to 300 seconds at different fluences.
The 664 nm-laser light was irradiated at different fluences for 60 seconds or for 10 seconds. […]
After the treatment with the irradiation of 664 nm-laser light was terminated, the test monkeys having the neovasculature lesions, either treated or untreated, were fed for 1 week under routine feeding conditions. After the feeding for one week, the effects of the above treatments were judged by a fluorescence fundus angiography with fluorescein and by a fluorescence fundus angiography with indocyanine green (ICG). […] For the fluorescence fundus angiography with ICG, the ocular fundi of the monkeys were observed and diagnosed by means of SLO or by means of an infrared light fundus camera apparatus for the infrared ocular fundus angiography, after the intravenous injection of ICG. […]

[4] = tested on: experimental choroidal neovascular vessels (CNV); assay: PDT with NPe6 timed by prior ICG angiography (Test Example 4)
Experimental: To these test monkeys was intravenously injected ICG at a dose of 1 mg/kg in the same way as in Test Example 3. Immediately after the time of the intravenous injection of ICG, the ocular fundi of the monkeys were continuously observed by means of an infrared light fundus camera apparatus (of modified TCR 50 type, manufactured by Topcon Co., Ltd.) for the infrared fluorescence fundus angiography for diagnosing the ocular fundus. The observation with the fundus camera was made under irradiation of the ocular fundi with the laser light containing a light of 790 nm-wavelength. There was recorded the time point at which the infrared fluorescence of ICG was eliminated entirely from the retinal normal vascular vessels. The time-gap which was extended between the aforesaid time point as recorded for the entire elimination of the infrared fluorescence of IGC and the time of the intravenous injection of ICG was calculated in a unit of “minutes” or “second”, whereby it was estimated that said time-gap was 30 minutes. • (b) Time was allowed to pass until the infrared fluorescence of ICG was eliminated entirely from the neovasculature lesions in the ocular fundi of the test monkeys. […] The 664 nm-laser light as irradiated was irradiated at an irradiance of 0.57 W/cm2 for 180 seconds so that the fluence was of 102.6 J/cm^2. […]

[5] = tested on: vascular walls of retinal normal vascular vessels and choroidal neovascular vessels (CNV); assay: infrared fluorescence fundus angiography of ICG (790 nm excitation) in monkeys having experimental CNV; type: in vivo, monkeys of the genus Macaca; settings: for infrared fluorescence in CNV / infrared fluorescence in retinal normal vascular vessels: ICG 0.5 mg/kg iv
Text: In these experiments, the time-dependent changes in the concentrations of ICG having distributed and remaining in the vascular walls of the retinal normal vascular vessels and in the vascular walls of the choroidal neovascular vessels (CNV) in the ocular fundus of the monkeys were examined by a process wherein a beam of laser light containing a light of 790 nm-wavelength (as emitted from a semiconductor type laser generator) was used as an excitation light, and wherein the changes in the intensity of the infrared fluorescence emitted from the ICG as excited within said vascular walls were continuously recorded by photographs by means of an infrared light fundus camera apparatus (of modified TCR 50-IA type, manufactured by Topcon Co., Japan) for the infrared fluorescence fundus angiography for diagnosing the ocular fundus, and wherein the photographed images of the fundus were observed visually.
In the same manner as in the above Test Example 1, the neovasculature lesions comprising the experimental choroidal neovascular vessels (CNV) were produced in the ocular fundi of monkeys of the genus Macaca, according to the modified Ryan's method.
An aqueous solution of ICG dissolved in distilled water for the injections at a concentration of 5.0 mg/ml of ICG was intravenously injected at a dose of ICG of 0.5 mg/kg at a vein in the lower limbs of the monkeys having the neovasculature lesions in the retina of the eye.
Immediately after the time of the intravenous injection of ICG, the ocular fundi of the monkeys were continuously observed under irradiation of the beam of laser light containing a light of 790 nm-wavelength by means of an infrared light camera apparatus (of a modified TCR 50-IA type, manufactured by Topcon Co.) for infrared fluorescence fundus the angiography for diagnosing the ocular fundus.
To these test monkeys was intravenously injected ICG at a dose of 1 mg/kg in the same way as in Test Example 3. Immediately after the time of the intravenous injection of ICG, the ocular fundi of the monkeys were continuously observed by means of an infrared light fundus camera apparatus (of modified TCR 50 type, manufactured by Topcon Co., Ltd.) for the infrared fluorescence fundus angiography for diagnosing the ocular fundus. The observation with the fundus camera was made under irradiation of the ocular fundi with the laser light containing a light of 790 nm-wavelength. There was recorded the time point at which the infrared fluorescence of ICG was eliminated entirely from the retinal normal vascular vessels.

[6] = tested on: vascular walls of retinal normal vascular vessels and choroidal neovascular vessels (CNV); assay: infrared fluorescence fundus angiography after co-injection of ICG and NPe6 (Test Example 5); type: in vivo, monkeys of the genus Macaca; settings: ICG 0.5 mg/kg co-injected with NPe6 0.5 mg/kg
Text: The 664 nm-laser light as irradiated was irradiated at an irradiance of 0.68 W/cm^2 for 300 second so that the fluence was of 204 J/cm^2.

[7] = 0.5 mg/kg iv, 20 minutes after injection
[8] = 1.0 mg/kg iv, 30 minutes after injection
[9] = 20 mg/kg iv, 7.5 minutes after injection
[10] = 20 mg/kg iv, 20 minutes after injection
[11] = 20 mg/kg iv, 60 minutes after injection
[12] = 20 minutes after administration
[13] = about 7 to 8 minutes after injection

Compound: C=Cc1c(C)c2cc3nc(c(CC(=O)N[C@@H](CC(=O)[O-])C(=O)[O-])c4[nH]c(cc5nc(cc1[nH]2)C(C)=C5CC)c(C)c4C(=O)[O-])[C@@H](CCC(=O)[O-])[C@@H]3C.[Na+].[Na+].[Na+].[Na+] [NPe6, mono-L-aspartyl chlorin e6 tetra-sodium salt]
LD50 (CD-1 (male) mice): 164 mg/kg
red fluorescence in CNV [1, 7]: confirmably observed at a slight but appreciable intensity
red fluorescence in retinal normal vascular vessels [1, 7]: substantially entirely been eliminated and disappeared
time point at which red fluorescence was substantially entirely eliminated from retinal normal vascular vessels while CNV lesions continued to emit ([1]; 0.5 mg/kg iv): 20 min
red fluorescence in CNV [1, 8]: confirmed at a significant and appreciable intensity
red fluorescence in retinal normal vascular vessels [1, 8]: substantially entirely been eliminated
time point at which red fluorescence was substantially entirely eliminated from retinal normal vascular vessels while CNV lesions continued to emit ([1]; 1 mg/kg iv): 30 min
time point at which red fluorescence was substantially entirely eliminated from retinal normal vascular vessels while CNV lesions continued to emit ([1]; 2 mg/kg iv): 60 min
time point at which red fluorescence was substantially entirely eliminated from retinal normal vascular vessels while CNV lesions continued to emit ([1]; 10 mg/kg iv): 60 min
red fluorescence in vascular walls of CNV [1, 9]: observable slightly but detectable at its weak intensity
red fluorescence in vascular walls of retinal normal vascular vessels [1, 9]: appreciably observable at its prominent intensity
red fluorescence in CNV [1, 10]: remain at a higher and prominently observable intensity
red fluorescence in retinal normal vascular vessels [1, 10]: decreased to a lower and hardly detectable intensity
red fluorescence in CNV [1, 11]: observed at a high and prominent intensity
red fluorescence in retinal normal vascular vessels [1, 11]: never observable
time of peak NPe6 concentration in vascular walls of CNV after intravenous injection ([1]; monkeys with experimental CNV): about 20 minutes
permeation into normal parenchymal tissue of the ocular retina ([1]; monkeys, intravenous): never permeate
red fluorescence at CNV in cross-section samples [2]: observed confirmably at a significant intensity
red fluorescence at retinal normal vascular vessels in cross-section samples [2]: only a very slight degree of the red fluorescence
red fluorescence in cross-section samples of retinal parenchymal region [2]: almost not observable
state of retinal and choroidal normal vascular vessels adjacent to the occluded CNV [3]: remaining intact or nearly intact
number of treated neovasculature lesions whose CNV were successfully occluded ([4]; NPe6 1 mg/kg iv after ICG cleared, irradiation started 30 min, 0.57 W/cm2, 180 s, 102.6 J/cm^2, 3 lesions treated, judged after one week): 3
state of adjacent retinal normal vascular vessels, retinal parenchymal tissue and choroidal normal vascular vessels ([4]; NPe6 1 mg/kg iv, 664 nm-laser 102.6 J/cm^2, judged after one week): could remain intact

infrared fluorescence in retinal normal vascular vessels [5, 12]: had decreased
infrared fluorescence in CNV [5, 13]: a slight but appreciable intensity
time-gap between intravenous injection and entire elimination of infrared fluorescence from retinal normal vascular vessels ([5]; ICG 1 mg/kg iv): 30 min
infrared fluorescence of ICG in retinal normal vascular vessels ([6]; 20 minutes after injection): decreased to a poor intensity
Compound: CC1(C)C(/C=C/C=C/C=C/C=C2\N(CCCCS(=O)(=O)O)c3ccc4ccccc4c3C2(C)C)=[N+](CCCCS(=O)(=O)[O-])c2ccc3ccccc3c21 [ICG, indocyanine green]
infrared fluorescence in CNV [5, 12]: increased to a prominent and appreciable intensity
infrared fluorescence in retinal normal vascular vessels [5, 13]: observed at a prominent and appreciable intensity
infrared fluorescence of ICG in vascular walls of CNV ([6]; 20 minutes after injection): retained at a prominent and apreciable intensity
infrared fluorescence of ICG in retinal normal vascular vessels [6, 13]: observed at a prominent and appreciable intensity
